Data as given in patent publication US9598441B2, “Therapeutic compounds and methods” (Wayne State University, priority 2011, dated 2017).

Tested on: drug (ADR or TAM)-resistant MCF-7 HBC cells
Assay: MTT cell viability assay, drug-resistant cells
Type: cell-based, human
From the text: Routine maintenance and culture of MDA-MB-231, MDA-MB-468, SKBR-3 (all lack ER and have mutant p53), MCF-7, T47D (both have ER and wild-type p53) HBC cells (Runnebaum, I. B., Nagarajan, M., Bowman, M., Soto, D., and Sukumar, S. (1991). Proc. Natl. Acad. Sci. USA 88, 10657-10661), human prostate cancer PC3 and LnCAP cells, HCT-116 human colon cancer, human pancreatic cancer PANC-1 and BxPC-3, Burkett lymphoma Raji, diffuse large B-cell lymphoma WSU-DLCL2, follicular lymphoma WSU-FSCCL cells, cervical cancer HeLa, human mesothelial Met5a, human pleural malignant mesothelioma (MPM), murine MPM AB12 cells (Wang, Y., Rishi, A. K., Puliyappadamba, V. T., Sharma, S., Yang, H., Tarca, A., Dou, Q. P., Lonardo, F., Ruckdeschel, J. C., Pass, H. I., Wali, A. (2010) Can. Chemother. […]
Logarithmically growing cells were either untreated or treated with different agents for various time periods. […] The cell growth inhibition was assessed by using MTT assay. […]

O=C1N(Cc2ccccc2Cl)c2ccccc2C12NN=C(c1ccccc1)S2 (stereo not shown) [CFM-4, 1-(2-chlorobenzyl)-5′-phenyl-3′H-spiro[indoline-3,2′-[1,3,4]thiadiazol]-2-one]
proliferation of drug-resistant MCF-7 cells (MTT): inhibited proliferation
